# Measurements published in ChEMBL document CHEMBL1153400, “Fluorinated isatin derivatives. Part 1: synthesis of new N-substituted (S)-5-[1-(2-methoxymethylpyrrolidinyl)sulfonyl]isatins as potent caspase-3 and -7 inhibitors” (Bioorg Med Chem, 2009).
# pIC50: −log10 of the molar value.
# Molecular target: T1, Caspase-3 (Homo sapiens, UniProt P42574)
# T1 sequence (P42574 whole entry): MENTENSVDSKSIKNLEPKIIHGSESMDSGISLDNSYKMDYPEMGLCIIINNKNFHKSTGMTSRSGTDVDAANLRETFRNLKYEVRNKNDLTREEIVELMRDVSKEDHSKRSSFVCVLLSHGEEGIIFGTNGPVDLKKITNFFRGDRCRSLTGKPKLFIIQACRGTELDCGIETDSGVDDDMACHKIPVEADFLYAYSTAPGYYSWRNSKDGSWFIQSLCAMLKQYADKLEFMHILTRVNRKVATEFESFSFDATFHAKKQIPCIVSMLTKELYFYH
# Assay: Inhibition of human recombinant caspase 3
row,SMILES,pIC50
1,CCCN1C(=O)C(F)(F)c2cc(S(=O)(=O)N3CCC[C@H]3COC)ccc21,< 4.00
2,COC[C@@H]1CCCN1S(=O)(=O)c1ccc2c(c1)C(=O)C(=O)N2CCCOCCCF,< 4.00
3,COC[C@@H]1CCCN1S(=O)(=O)c1ccc2c(c1)C(=O)C(=O)N2CCCOCCCOS(C)(=O)=O,< 4.00

# The next lines start with the values.
row,pIC50,SMILES
1,6.74,CCN1C(=O)C(=O)c2cc(S(=O)(=O)N3CCC[C@H]3COC)ccc21
2,8.28,CCCN1C(=O)C(=O)c2cc(S(=O)(=O)N3CCC[C@H]3COC)ccc21
3,7.39,COC[C@@H]1CCCN1S(=O)(=O)c1ccc2c(c1)C(=O)C(=O)N2CCCCF
4,7.54,CCCCN1C(=O)C(=O)c2cc(S(=O)(=O)N3CCC[C@H]3COC)ccc21

# Molecular target: T2, Caspase-7 (Homo sapiens, UniProt P55210)
# T2 sequence (P55210 whole entry): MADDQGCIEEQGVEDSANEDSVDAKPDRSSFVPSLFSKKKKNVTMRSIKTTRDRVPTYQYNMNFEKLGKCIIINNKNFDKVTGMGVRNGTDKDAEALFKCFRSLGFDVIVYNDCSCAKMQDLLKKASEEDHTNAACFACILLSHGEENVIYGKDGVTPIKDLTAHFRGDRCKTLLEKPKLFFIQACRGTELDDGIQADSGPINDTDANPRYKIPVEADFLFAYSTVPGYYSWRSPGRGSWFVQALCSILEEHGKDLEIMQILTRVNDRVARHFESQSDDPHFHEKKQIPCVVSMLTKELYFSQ
# Assay: Inhibition of human recombinant caspase 7
row,SMILES,pIC50
1,CCCN1C(=O)C(F)(F)c2cc(S(=O)(=O)N3CCC[C@H]3COC)ccc21,< 4.00
2,COC[C@@H]1CCCN1S(=O)(=O)c1ccc2c(c1)C(=O)C(=O)N2CCCOCCCF,< 4.00
3,COC[C@@H]1CCCN1S(=O)(=O)c1ccc2c(c1)C(=O)C(=O)N2CCCOCCCOS(C)(=O)=O,< 4.00
4,COC[C@@H]1CCCN1S(=O)(=O)c1ccc2c(c1)C(=O)C(=O)N2CCCOCCCO,3.95

# Stronger by pIC50, values ahead:
row,pIC50,SMILES
1,6.50,CCN1C(=O)C(=O)c2cc(S(=O)(=O)N3CCC[C@H]3COC)ccc21
2,6.77,COC[C@@H]1CCCN1S(=O)(=O)c1ccc2c(c1)C(=O)C(=O)N2
3,7.24,CCCN1C(=O)C(=O)c2cc(S(=O)(=O)N3CCC[C@H]3COC)ccc21
4,7.55,COC[C@@H]1CCCN1S(=O)(=O)c1ccc2c(c1)C(=O)C(=O)N2CCCCF
5,8.09,CCCCN1C(=O)C(=O)c2cc(S(=O)(=O)N3CCC[C@H]3COC)ccc21
